pIC50: −log10 of the molar value.
Test system: 996289-038-R-J1-PDC spheroid viability
Experiment: Anticancer human tumor 996289-038-R-J1-PDC patient-derived colon adenocarcinoma cell line growth inhibition [PI3K]
Conditions: spheroids with HUVEC and MSC; for pIC50: curve of first compound; for viability, T/C: stronger effect = lower value
Procedure, shortened: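 Spheroid viability read-out. Co-cultures contained the tumor line plus HUVEC and human MSCs. Each agent was paired with a PI3K inhibitor (inavolisib, alpelisib, duvelisib, copanlisib) across half-log dilutions starting at clinical Cmax, or at 10 microM when Cmax was unknown.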

[1] = second compound 0.0316 µM, first compound 0.0316 µM
[2] = second compound 0.0316 µM, first compound 0.1 µM
[3] = second compound 0.0316 µM, first compound 0.316 µM
[4] = second compound 0.0316 µM, first compound 1 µM
[5] = second compound 0.0316 µM, first compound 3.16 µM
[6] = second compound 0.0316 µM, first compound 10 µM
[7] = second compound 0.1 µM, first compound 0.0316 µM
[8] = second compound 0.1 µM, first compound 0.1 µM
[9] = second compound 0.1 µM, first compound 0.316 µM
[10] = second compound 0.1 µM, first compound 1 µM
[11] = second compound 0.1 µM, first compound 3.16 µM
[12] = second compound 0.1 µM, first compound 10 µM
[13] = second compound 0.316 µM, first compound 0.0316 µM
[14] = second compound 0.316 µM, first compound 0.1 µM
[15] = second compound 0.316 µM, first compound 0.316 µM
[16] = second compound 0.316 µM, first compound 1 µM
[17] = second compound 0.316 µM, first compound 3.16 µM
[18] = second compound 0.316 µM, first compound 10 µM
[19] = second compound 1 µM, first compound 0.0316 µM
[20] = second compound 1 µM, first compound 0.1 µM
[21] = second compound 1 µM, first compound 0.316 µM
[22] = second compound 1 µM, first compound 1 µM
[23] = second compound 1 µM, first compound 3.16 µM
[24] = second compound 1 µM, first compound 10 µM
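Note: spheroids exposed to compounds for seven days before viability read.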
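Throughout, for viability, T/C: luminescence used as a proxy for viable cell amount; percent viability relative to DMSO vehicle control as 100%.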

`C[C@@H](NC(=O)c1ncnc(N)c1Cl)c1ncc(C(=O)Nc2cc(C(F)(F)F)c(Cl)cn2)s1` + CC(Nc1ncnc2nc[nH]c12)c1cc2cccc(Cl)c2c(=O)n1-c1ccccc1 was tested, and the pIC50 (second compound 0.0316 µM) was < 5.00, the pIC50 (second compound 0.1 µM) was < 5.00 and the pIC50 (second compound 0.316 µM) was < 5.00. The pIC50 (second compound 1 µM) was < 5.00, the pIC50 (second compound 3.16 µM) was < 5.00 and the pIC50 (second compound 10 µM) was < 5.00. For the same molecule, the viability, T/C [1] was 102%, the viability, T/C [2] was 102% and the viability, T/C [3] was 98.6%. For the same molecule, the viability, T/C [4] was 128%, the viability, T/C [5] was 137% and the viability, T/C [6] was 126%. For the same molecule, the viability, T/C [7] was 115%, the viability, T/C [8] was 85.2% and the viability, T/C [9] was 125%. The viability, T/C [10] was 120%, the viability, T/C [11] was 124% and the viability, T/C [12] was 111%. For the same molecule, the viability, T/C [13] was 105%, the viability, T/C [14] was 103% and the viability, T/C [15] was 116%. For the same molecule, the viability, T/C [16] was 108%, the viability, T/C [17] was 142% and the viability, T/C [18] was 130%. For the same molecule, the viability, T/C [19] was 105%, the viability, T/C [20] was 108% and the viability, T/C [21] was 95.8%. The viability, T/C [22] was 108%, the viability, T/C [23] was 135% and the viability, T/C [24] was 120%. It also gave a viability, T/C (second compound 3.16 µM, first compound 0.0316 µM) of 83.3%, a viability, T/C (second compound 3.16 µM, first compound 0.1 µM) of 93.9% and a viability, T/C (second compound 3.16 µM, first compound 0.316 µM) of 115%. The viability, T/C (second compound 3.16 µM, first compound 1 µM) was 119%, the viability, T/C (second compound 3.16 µM, first compound 3.16 µM) was 140% and the viability, T/C (second compound 3.16 µM, first compound 10 µM) was 116%. For the same molecule, the viability, T/C (second compound 10 µM, first compound 0.0316 µM) was 93.1%, the viability, T/C (second compound 10 µM, first compound 0.1 µM) was 102% and the viability, T/C (second compound 10 µM, first compound 0.316 µM) was 102%. For the same molecule, the viability, T/C (second compound 10 µM, first compound 1 µM) was 98.1%, the viability, T/C (second compound 10 µM, first compound 3.16 µM) was 122% and the viability, T/C (second compound 10 µM, first compound 10 µM) was 101%.
`CC1(C)CCC(CN2CCN(c3ccc(C(=O)NS(=O)(=O)c4ccc(NCC5CCOCC5)c([N+](=O)[O-])c4)c(Oc4cnc5[nH]ccc5c4)c3)CC2)=C(c2ccc(Cl)cc2)C1` + COc1c(OCCCN2CCOCC2)ccc2c3n(c(=NC(=O)c4cnc(N)nc4)nc12)CCN3 gave a pIC50 (second compound 0.00316 µM) of 5.12, a pIC50 (second compound 0.01 µM) of 5.11 and a pIC50 (second compound 0.0316 µM) of 5.24. The pIC50 (second compound 0.1 µM) was 5.38, the pIC50 (second compound 0.316 µM) was > 7.50 and the pIC50 (second compound 1 µM) was > 7.50. It also gave a viability, T/C (second compound 0.00316 µM, first compound 0.0316 µM) of 88.5%, a viability, T/C (second compound 0.00316 µM, first compound 0.1 µM) of 97.1% and a viability, T/C (second compound 0.00316 µM, first compound 0.316 µM) of 94.2%. For the same molecule, the viability, T/C (second compound 0.00316 µM, first compound 1 µM) was 110%, the viability, T/C (second compound 0.00316 µM, first compound 3.16 µM) was 106% and the viability, T/C (second compound 0.00316 µM, first compound 10 µM) was 34%. The viability, T/C (second compound 0.01 µM, first compound 0.0316 µM) was 95.6%, the viability, T/C (second compound 0.01 µM, first compound 0.1 µM) was 88.6% and the viability, T/C (second compound 0.01 µM, first compound 0.316 µM) was 84.2%. For the same molecule, the viability, T/C (second compound 0.01 µM, first compound 1 µM) was 97.7%, the viability, T/C (second compound 0.01 µM, first compound 3.16 µM) was 103% and the viability, T/C (second compound 0.01 µM, first compound 10 µM) was 37.6%. The viability, T/C [1] was 81.3%, the viability, T/C [2] was 84.2% and the viability, T/C [3] was 72.9%. The viability, T/C [4] was 86.1%, the viability, T/C [5] was 90.5% and the viability, T/C [6] was 19.7%. For the same molecule, the viability, T/C [7] was 65%, the viability, T/C [8] was 62.5% and the viability, T/C [9] was 62.8%. For the same molecule, the viability, T/C [10] was 59.5%, the viability, T/C [11] was 65.2% and the viability, T/C [12] was 10.3%. For the same molecule, the viability, T/C [13] was 40.4%, the viability, T/C [14] was 36.2% and the viability, T/C [15] was 33.9%. For the same molecule, the viability, T/C [16] was 36.9%, the viability, T/C [17] was 38.6% and the viability, T/C [18] was 11.3%. The viability, T/C [19] was 19.5%, the viability, T/C [20] was 19.5% and the viability, T/C [21] was 21.1%. It also gave a viability, T/C [22] of 23.3%, a viability, T/C [23] of 18.8% and a viability, T/C [24] of 6.87%.

Reference: PubChem BioAssay AID1963965 (Molecular Pharmacology Branch, DTP, NCI, 2024)
